# System: K. brevis
# Experiment: K. brevis mortality test of individual pure compounds against red tide cultures
# Format: cell-based, Karenia brevis
# Details: 100% mortality of K. brevis within 2 hours after administration to a water sample containing K. brevis
# Procedure: Shown below in Table 1 are one saturated fatty acid (viz., palmitic acid) and nine exemplary algicidal unsaturated fatty acids, along with their omega nomenclature (viz., number of carbon atoms, number of double bonds, number of carbon atoms from the carboxylic acid end to the first carbon in a double bond) and the required dosage in ppm to obtain 100% mortality of K. brevis, within 2 hours after administration to a water sample containing K. brevis, according to embodiments of the present disclosure.
# The relative toxic effects shown in Table 1 were determined by obtaining individual pure compounds and testing them against red tide cultures of K. brevis. The compounds in Table 1 may also be tested as salts or soaps, and in water or non-methanolic solvents such as ethanol, acetone, acetic acid, dimethyl sulfoxide (DMSO) or other polar or non-polar solvent. […] In embodiments, the observed mortality may for example be at least 25%, at least 50%, at least 75%, at least 90% or as much as 100% in a desired time frame (e.g., within 2 hours, within 4 hours, within 8 hours, within 24 hours, or within 2, 3 or 4 days following application of the algicidal compound. In some embodiments, 100% death of red tide organisms may be achieved within 30 minutes of application within a target area. Additionally, extracts of macro algae common in environments suitable for K. brevis were tested to see how the mixture of fatty acids in those extracts would perform as algicidal agents. Use of a single compound instead of a mixture may be preferable under many common circumstances. However, Ulva latuca and Gracilaria tikvahiae contain mixtures of fatty acids and may be used as salts or soaps or in non-methanolic solutions to control K. brevis red tide blooms, according to embodiments of the present disclosure.
# To measure K. brevis mortality in a liquid, the concentration of K. brevis is measured before any algaecides are added. An algaecide is then added, and the concentration of live K. brevis measured at intervals (e.g. 1, 2, 5, 10, 20, and 30 minutes). This may also be performed in serial stages. For example, if the mortality rate of K. brevis at 30 minutes is 100%, the experiment may be repeated and the concentration of K. brevis measured at a lesser time point, such as after 20 minutes. If the mortality rate of K. brevis is still 100%, the experiment may be repeated again with the concentration measured at a lesser time point, such as after 10 minutes. The experiment may be repeated as many times as necessary to measure how long it takes for an algaecide to reach 100% mortality rate of K. brevis. Any suitable time periods may be used to measure the concentration of K. brevis.
# A variety of techniques may be used to measure K. brevis concentrations. In some embodiments, staining techniques are used. Staining may be performed with Lugol's Iodine Solution stain, which will become fixed to and stain the K. brevis so that it may be visualized. Other stains may be used, such as Invitrogen™ SYTOX™ Green from Thermo Fisher Scientific, which will penetrate compromised membranes (a feature characteristic of dead cells) of K. brevis and stain them. Fluorescein Diacetate may also be used, where live cells convert the fluorescein diacetate to […] which fluoresces and may be measured. Additionally, 4′,6-diamidino-2-phenylindole (DAPI) may also be used to stain nucleic acids that are inside or outside of cells. In addition to staining methods, the concentration of K. brevis may also be measured by other imaging techniques such as manual count, microscopy, fluorometry, flow cytometry, or other possible staining or counting techniques. FIG. 3 depicts one method of measuring K. brevis concentration using Invitrogen™ SYTOX™ Green.
row,SMILES,Dosage (PPM) for 100% Mortality in under 2 hrs
1,CCCCC/C=C\C/C=C\C/C=C\C/C=C\CCCCCC(=O)O [Adrenic Acid],<50 PPM
2,CC/C=C\C/C=C\C/C=C\CCCCCCCC(=O)O [Alpha-linolenic Acid],3 PPM
3,CCCCC/C=C\C/C=C\C/C=C\C/C=C\CCCC(=O)O [Arachidonic Acid],1.5 PPM
4,CC/C=C\C/C=C\C/C=C\C/C=C\C/C=C\C/C=C\CCC(=O)O [Docosahexanoic Acid],<2.5 PPM
5,CC/C=C\C/C=C\C/C=C\C/C=C\C/C=C\CCCC(=O)O [Eicosapentaenoic Acid],<2 PPM
6,CC/C=C\C/C=C\C/C=C\C/C=C\CCC(=O)O [Hexadecatetraenoic Acid],>1 PPM
7,"CCCCCCCCCCCCCCCC(=O)O [Palmitic Acid, reference compound]",>10 PPM
8,CCCCCC/C=C\CCCCCCCC(=O)O [Palmitoleic Acid],3 PPM
9,CC/C=C\C/C=C\C/C=C\C/C=C\CCCCC(=O)O [Stearidonic Acid],>2 PPM
10,CCCCCC/C=C\CCCCCCCCCC(=O)O [Vacennic Acid],>6 PPM

# System: K. brevis cells
# Experiment: Large-scale mesocosm experiment, efficacy of algicide treatment (red tide cell counts)
# Format: cell-based, Karenia brevis
# Details: 15 or 25 ppm particles; 1400 L tanks; 1 million cells/L; first (15 minute) sampling period
# Procedure: A large-scale mesocosm experiment was conducted to evaluate the efficacy of algicide treatment and marine organism toxicity. In each of four 1400 L exposure tanks containing K. brevis cells at a red tide concentration of 1 million cells/L, potassium ricinoleate particles were added to the tanks at levels of 15 or 25 ppm. At 15 minutes after addition of the algicidal agent to each tank, water samples were collected for red tide cell counts.
# Marine organism toxicity was evaluated by adding grass shrimp or Gulf killifish to the tanks along with the red tide cells and 15 or 25 ppm of the algicidal compounds. The red tide cells were quickly killed as before. After 18 and 24 hours, all shrimp remained alive. After 18 hours all fish were alive, but significant fish mortality was observed after 24 hours. The fish mortality was determined to be due to insufficient tank water circulation and oxygenation, and repeating the fish experiment with adequate circulation and oxygenation should eliminate or at least reduce the observed fish mortality.
row,SMILES,red tide cell mortality (no live cells under microscopic examination)
1,CCCCCC[C@@H](O)C/C=C\CCCCCCCC(=O)[O-].[K+] [potassium ricinoleate],complete red tide cell mortality
